Where a name gives a salt, the structure may show the parent alone. Read-outs that look alike come from different tables or passages of the source.
Assays:
[1] = target: nAChR formed by the α7 subunit isoform (Rattus norvegicus, UniProt Q05941); assay: In vitro inhibition of 3H-α-bungarotoxine binding rat brain (Assay III)
[2] = target: T1, neuronal nicotinic receptors (3H-epibatidine binding sites; high affinity site α4β2 subtype) (Rattus norvegicus, UniProt P09483+P12390)
[3] = target: T1, neuronal nicotinic receptors (3H-epibatidine binding sites; high affinity site α4β2 subtype); assay: biochemical
[4] = 3H-α-bungarotoxine 2 nM, cerebral cortices from male Wistar rats, 2 h at 37° C., read-out: Assay III IC50

T1 sequence (P09483 31-630): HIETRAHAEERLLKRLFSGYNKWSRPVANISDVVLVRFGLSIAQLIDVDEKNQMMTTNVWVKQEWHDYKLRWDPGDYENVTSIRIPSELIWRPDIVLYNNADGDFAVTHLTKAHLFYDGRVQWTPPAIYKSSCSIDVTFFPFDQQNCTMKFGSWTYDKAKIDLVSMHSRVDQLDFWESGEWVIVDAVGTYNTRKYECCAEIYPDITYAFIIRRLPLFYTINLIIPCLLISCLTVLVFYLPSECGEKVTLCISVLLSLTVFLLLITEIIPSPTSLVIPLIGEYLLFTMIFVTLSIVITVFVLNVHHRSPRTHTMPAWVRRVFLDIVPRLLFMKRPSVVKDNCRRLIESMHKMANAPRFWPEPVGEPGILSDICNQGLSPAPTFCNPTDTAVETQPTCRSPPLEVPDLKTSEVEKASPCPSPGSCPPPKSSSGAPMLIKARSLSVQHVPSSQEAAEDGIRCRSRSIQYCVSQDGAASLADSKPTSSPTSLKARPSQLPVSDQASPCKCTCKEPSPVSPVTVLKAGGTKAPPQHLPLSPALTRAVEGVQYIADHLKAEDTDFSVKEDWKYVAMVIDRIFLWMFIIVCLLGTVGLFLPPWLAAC
T1 sequence (P12390 25-500): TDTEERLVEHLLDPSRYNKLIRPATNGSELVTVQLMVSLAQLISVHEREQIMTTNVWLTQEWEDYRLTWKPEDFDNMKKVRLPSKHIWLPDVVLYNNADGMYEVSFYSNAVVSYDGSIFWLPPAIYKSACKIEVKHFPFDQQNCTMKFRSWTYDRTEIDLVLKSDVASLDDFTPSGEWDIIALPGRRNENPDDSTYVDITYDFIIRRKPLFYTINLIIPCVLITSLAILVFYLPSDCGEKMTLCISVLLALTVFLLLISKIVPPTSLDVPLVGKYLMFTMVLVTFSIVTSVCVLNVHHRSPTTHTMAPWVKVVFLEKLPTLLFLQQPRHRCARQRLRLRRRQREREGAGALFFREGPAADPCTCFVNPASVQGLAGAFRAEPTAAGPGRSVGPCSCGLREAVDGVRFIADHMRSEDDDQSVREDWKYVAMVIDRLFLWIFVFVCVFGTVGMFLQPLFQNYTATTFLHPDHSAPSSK
nAChR formed by the α7 subunit isoform, sequence (Q05941 23-502): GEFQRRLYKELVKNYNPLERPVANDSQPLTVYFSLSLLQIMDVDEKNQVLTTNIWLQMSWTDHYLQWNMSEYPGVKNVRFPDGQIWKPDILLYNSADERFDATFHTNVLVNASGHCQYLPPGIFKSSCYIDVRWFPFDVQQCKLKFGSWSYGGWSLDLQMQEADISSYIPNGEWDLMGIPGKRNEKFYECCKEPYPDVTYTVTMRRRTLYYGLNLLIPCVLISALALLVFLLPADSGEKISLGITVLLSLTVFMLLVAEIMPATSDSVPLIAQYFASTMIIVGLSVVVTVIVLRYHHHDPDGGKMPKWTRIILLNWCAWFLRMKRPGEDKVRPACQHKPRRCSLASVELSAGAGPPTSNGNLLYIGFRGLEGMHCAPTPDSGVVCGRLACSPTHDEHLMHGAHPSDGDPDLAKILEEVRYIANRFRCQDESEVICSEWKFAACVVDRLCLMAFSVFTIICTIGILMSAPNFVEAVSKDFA

Row | SMILES | IC50 [1, 4] [nM] | melting point [°C] | IC50 [3] [nM] | other results
1 | CC(C)=COc1cncc(N2CCCNCC2)c1 [1-[5-(2-Methyl-1-prop-1-en-oxy)-3-pridyl]-homopiperazine] | 85000 | – | – | IC50 [2]: 20 nM
2 | CCC(CC)COc1cncc(N2CCCNCC2)c1 (as salt: fumaric acid salt) [1-[5-(2-Ethyl-1-butoxy)-3-pyridyl]-homopiperazine] | – | 113.7 to 115.9 | – | –
3 | CCCC=CCOc1cncc(N2CCCNCC2)c1 [1-[5-(Hex-2-en-ox)-3-pyridyl]-homopiperazine] | 47000 | – | 8 | –
4 | Clc1ncc(N2CCCNCC2)cc1Br (as salt: fumaric acid salt) [1-(5-Bromo-6-chloro-3-pyridyl)-homopiperazine] | – | 188.2 to 189.2 | – | –
5 | c1ncc(N2CCCNCC2)cc1OCC1CCC1 (as salt: fumaric acid salt) [1-[5-(Cyclobutylmethoxy)-3-pyridyl]-homopiperazine] | – | 158.9 to 159.9 | – | –
6 | C=COc1cc(N2CCCNCC2)cnc1Br (as salt: fumaric acid salt) | – | 128.6 | – | –
7 | C=CCN1CCCN(c2cncc(OCC)c2)CC1 [1-(5-Ethoxy-3-pyridyl)-4-(prop-2-en-1-yl-)-homopiperazine] | – | – | – | IC50 [1]: > 30000 nM
8 | Clc1cc(N2CCCNCC2)cnc1Cl [1-(5,6-Dichloro-3-pyridyl)-homopiperazine] | < 3000 | – | 2 | –
9 | CCCCN(C)c1cncc(N2CCCNCC2)c1 (as salt: fumaric acid salt) [1-[5-(N-Butyl-N-methylamino)-3-pyridyl]homopiperazine] | – | 140.5 to 141.8 | – | –
10 | Brc1cc(N2CCCNCC2)cnc1Br [1-(5,6-Dibromo-3-pyridyl)-homopiperazine] | 3000 | – | 1 | –
11 | C(#Cc1cncc(N2CCCNCC2)c1)c1ccccc1 (as salt: fumaric acid salt) [1-(5-Phenylacetylenyl-3-pyridyl)-homopiperazine] | – | 155.2 to 157.8 | – | –
12 | CCCC=CCOc1cncc(N2CCCNCC2)c1 (as salt: fumaric acid salt) [1-[5-(Hex-2-en-ox)-3-pyridyl]-homopiperazine] | – | 126.8 to 130.2 | – | –
13 | C(#Cc1cncc(N2CCCNCC2)c1)c1ccccc1 [1-(5-Phenylacetylenyl-3-pyridyl)-homopiperazine] | 11000 | – | 5 | –
14 | CCC(CC)COc1cncc(N2CCCNCC2)c1 [1-[5-(2-Ethyl-1-butoxy)-3-pyridyl]-homopiperazine] | > 30000 | – | 13 | –
15 | CCCCCOc1cncc(N2CCN(C)CC2)c1 (as salt: fumaric acid salt) | – | 113.6 to 115.1 | – | –
16 | Brc1cc(N2CCCNCC2)cnc1Br (as salt: fumaric acid salt) [1-(5,6-Dibromo-3-pyridyl)-homopiperazine] | – | 192.1 to 193.2 | – | –
17 | c1ncc(N2CCCNCC2)cc1N1CCCC1 [1-[5-(N-pyrrolidinyl)-3-pyridyl]-homopiperazine] | 5000 | – | 40 | –
18 | Brc1ccc(N2CCCNCC2)nn1 [1-(6-Bromo-3-pyridazinyl)-homopiperazine] | 1500 | – | 70 | –
19 | CCOc1cncc(N2CCCN(CC)CC2)c1 [1-(5-Ethoxy-3-pyridyl)-4-ethyl-homopiperazine] | – | – | – | IC50 [1]: > 30000 nM

Row | SMILES | IC50 [1, 4] [nM] | melting point [°C] | IC50 [3] [nM] | other results
20 | C=COc1cncc(N2CCCN(c3cncc(OC=C)c3)CC2)c1 (as salt: fumaric acid salt) | – | 157 to 158.5 | – | –
21 | Clc1cc(N2CCCNCC2)cnc1Br (as salt: fumaric acid salt) [1-(6-Bromo-5-chloro-3-pyridyl)-homopiperazine] | – | 213 to 216 | – | –
22 | c1ncc(N2CCCNCC2)cc1N1CCC1 (as salt: fumaric acid salt) | – | 143.5 to 146.9 | – | –
23 | c1ncc(N2CCCNCC2)cc1N1CCCC1 (as salt: fumaric acid salt) [1-[5-(N-pyrrolidinyl)-3-pyridyl]-homopiperazine] | – | 141.5 to 143 | – | –
24 | Brc1cncc(N2CCCNCCC2)c1 (as salt: fumaric acid salt) | – | 151 to 153 | – | –
25 | Clc1cc(N2CCCNCC2)cnc1Cl (as salt: fumaric acid salt) [1-(5,6-Dichloro-3-pyridyl)-homopiperazine] | – | 172.2 to 173.4 | – | –
26 | C=COc1cc(N2CCCNCC2)cnc1Cl (as salt: fumaric acid salt) | – | 183 to 185 | – | –
27 | C=CC(C)Oc1cncc(N2CCCNCC2)c1 (stereo not shown) (as salt: fumaric acid salt) [1-[5-(1-Methyl-1-prop-2-en-oxy)-3-pyridyl]-homopiperazine] | – | 129.5 to 133.6 | – | –
28 | C=CC(C)Oc1cncc(N2CCCNCC2)c1 (stereo not shown) [1-[5-(1-Methyl-1-prop-2-en-oxy)-3-pyridyl]-homopiperazine] | 11000 | – | 52 | –
29 | Brc1ccc(N2CCCNCC2)nn1 (as salt: fumaric acid salt) [1-(6-Bromo-3-pyridazinyl)-homopiperazine] | – | 169 to 171 | – | –
30 | Clc1cncc(N2CCCNCCC2)c1 (as salt: fumaric acid salt) | – | 186 to 187 | – | –
31 | Clc1cc(N2CCCNCC2)cnc1Br [1-(6-Bromo-5-chloro-3-pyridyl)-homopiperazine] | < 3000 | – | 2 | –
32 | c1ncc(N2CCCNCC2)cc1OCC1CCC1 [1-[5-(Cyclobutylmethoxy)-3-pyridyl]-homopiperazine] | > 30000 | – | 4 | –
33 | Ic1cncc(N2CCCNCC2)c1 (as salt: fumaric acid salt) | – | 178 to 180 | – | –
34 | CCOc1cncc(N2CCCN(c3cncc(OCC)c3)CC2)c1 (as salt: fumaric acid salt) | – | 155 to 156 | – | –
35 | CCCCOc1cncc(N2CCCNCCC2)c1 [1-[5-(Butoxy)-3-pyridyl]-1,5-diazacyclooctane] | – | – | 3 | –
36 | COc1cc(N2CCCNCC2)cnc1Br (as salt: fumaric acid salt) | – | 210 to 212 | – | –
37 | CC1OC1Oc1cncc(N2CCCNCC2)c1 (stereo not shown) [1-[5-(Propyl-1,2-epoxy-1-oxy)-3-pyridyl]-homopiperazine] | 58000 | 135.2 to 139 | 40 | –
38 | Clc1ncc(N2CCCNCC2)cc1Br [1-(5-Bromo-6-chloro-3-pyridyl)-homopiperazine] | < 3000 | – | 1 | –

Source: US7282494B2, “Heteroaryl diazacycloalkanes, their preparation and use” (Neurosearch A/S, priority 1909, dated 2007)
